Data taken from patent US20090304692A1, “TRIAZINE COMPOUNDS AS PI3 KINASE AND MTOR INHIBITORS” (Wyeth, priority 2008, published 2009).
Read-outs that look alike come from different tables or passages of the source.

Assays:
Human mTOR (FLAG-TOR) = Human mTOR (FLAG-TOR) (Homo sapiens, UniProt P42345); test: mTOR kinase assay (DELFIA format, purified enzyme); type: biochemical; conditions: read-out: IC50 mTOR
PI3K-γ = PI3K-γ (Homo sapiens, UniProt P48736); test: PI3K-gamma fluorescence polarization assay
PI3K-α = PI3K-α (Homo sapiens, UniProt P42336); test: PI3K-alpha fluorescence polarization assay
[1] = test system: human breast MDA-MB-361 tumor cell line; test: In vitro cell culture growth assay (MTS), MDA-MB-361; type: cell-based; conditions: Homo sapiens, MTS cell growth assay, three days after drug treatment, MDA-MB-361 cells, read-out: IC50 MDA-MB-361
[2] = test system: human prostate PC3-mm2 tumor cell line; test: In vitro cell culture growth assay (MTS), PC3-mm2; type: cell-based; conditions: Homo sapiens, PC3MM2, 72 h, MTS cell growth assay, three days after drug treatment, PC3-mm2 cells; read-out: IC50 PC3-mm2

Sequence of PI3K-γ (P48736 whole entry, species assumed): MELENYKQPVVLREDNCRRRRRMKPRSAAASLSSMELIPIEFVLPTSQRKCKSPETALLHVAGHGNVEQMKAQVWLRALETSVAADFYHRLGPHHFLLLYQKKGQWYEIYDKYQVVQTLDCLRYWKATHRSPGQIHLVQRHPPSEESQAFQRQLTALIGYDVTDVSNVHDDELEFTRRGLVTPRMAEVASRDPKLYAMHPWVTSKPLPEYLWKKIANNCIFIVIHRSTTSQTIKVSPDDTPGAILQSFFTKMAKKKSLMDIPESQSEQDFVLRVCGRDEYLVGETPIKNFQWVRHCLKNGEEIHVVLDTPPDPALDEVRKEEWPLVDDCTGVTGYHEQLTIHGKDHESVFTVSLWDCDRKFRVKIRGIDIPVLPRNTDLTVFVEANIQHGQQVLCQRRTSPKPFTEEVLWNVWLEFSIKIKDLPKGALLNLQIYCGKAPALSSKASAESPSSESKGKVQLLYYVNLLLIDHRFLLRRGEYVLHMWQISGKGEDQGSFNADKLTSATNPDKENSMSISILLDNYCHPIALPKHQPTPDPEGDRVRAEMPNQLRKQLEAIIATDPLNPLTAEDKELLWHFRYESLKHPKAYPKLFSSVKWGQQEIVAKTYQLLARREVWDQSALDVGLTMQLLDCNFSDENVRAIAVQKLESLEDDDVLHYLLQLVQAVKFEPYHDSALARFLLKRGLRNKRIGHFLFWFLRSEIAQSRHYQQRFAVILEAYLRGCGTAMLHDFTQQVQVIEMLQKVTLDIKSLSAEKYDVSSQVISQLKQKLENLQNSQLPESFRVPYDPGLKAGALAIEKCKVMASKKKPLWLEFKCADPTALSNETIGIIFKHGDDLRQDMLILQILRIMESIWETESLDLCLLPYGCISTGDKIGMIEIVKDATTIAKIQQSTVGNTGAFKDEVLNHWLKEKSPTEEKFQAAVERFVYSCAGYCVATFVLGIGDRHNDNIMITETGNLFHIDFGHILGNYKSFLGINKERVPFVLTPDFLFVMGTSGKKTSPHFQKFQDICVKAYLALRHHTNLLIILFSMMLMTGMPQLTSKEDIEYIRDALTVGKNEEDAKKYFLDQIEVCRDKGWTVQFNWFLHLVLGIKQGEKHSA
Sequence of PI3K-α (P42336 whole entry, species assumed): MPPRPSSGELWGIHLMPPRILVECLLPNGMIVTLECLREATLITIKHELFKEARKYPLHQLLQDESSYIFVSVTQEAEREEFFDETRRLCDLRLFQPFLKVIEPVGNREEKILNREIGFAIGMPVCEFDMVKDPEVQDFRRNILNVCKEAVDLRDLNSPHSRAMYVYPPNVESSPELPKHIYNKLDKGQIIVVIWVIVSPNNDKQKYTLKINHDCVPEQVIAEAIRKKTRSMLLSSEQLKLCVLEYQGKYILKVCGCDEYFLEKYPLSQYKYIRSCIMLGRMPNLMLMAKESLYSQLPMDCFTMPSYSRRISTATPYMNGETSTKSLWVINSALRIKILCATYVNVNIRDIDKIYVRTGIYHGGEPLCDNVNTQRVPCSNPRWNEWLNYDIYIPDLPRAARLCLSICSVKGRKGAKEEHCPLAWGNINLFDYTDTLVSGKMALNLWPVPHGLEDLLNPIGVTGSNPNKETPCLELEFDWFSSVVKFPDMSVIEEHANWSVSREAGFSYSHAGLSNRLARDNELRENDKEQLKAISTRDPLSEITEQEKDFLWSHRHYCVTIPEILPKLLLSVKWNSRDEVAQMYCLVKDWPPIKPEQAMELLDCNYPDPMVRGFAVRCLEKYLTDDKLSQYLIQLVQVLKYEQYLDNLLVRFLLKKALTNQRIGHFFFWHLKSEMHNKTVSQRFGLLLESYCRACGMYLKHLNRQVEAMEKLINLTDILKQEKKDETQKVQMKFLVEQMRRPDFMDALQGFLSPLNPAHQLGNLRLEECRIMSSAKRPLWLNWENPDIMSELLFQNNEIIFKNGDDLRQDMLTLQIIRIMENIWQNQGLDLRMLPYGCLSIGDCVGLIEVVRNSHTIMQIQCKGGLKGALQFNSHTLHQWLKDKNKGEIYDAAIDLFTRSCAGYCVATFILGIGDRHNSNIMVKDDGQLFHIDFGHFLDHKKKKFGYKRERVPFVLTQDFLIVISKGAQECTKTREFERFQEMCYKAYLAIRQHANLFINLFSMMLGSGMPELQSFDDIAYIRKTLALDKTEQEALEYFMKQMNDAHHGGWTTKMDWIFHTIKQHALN
Sequence of PI3K-α (P27986 whole entry partner, species assumed): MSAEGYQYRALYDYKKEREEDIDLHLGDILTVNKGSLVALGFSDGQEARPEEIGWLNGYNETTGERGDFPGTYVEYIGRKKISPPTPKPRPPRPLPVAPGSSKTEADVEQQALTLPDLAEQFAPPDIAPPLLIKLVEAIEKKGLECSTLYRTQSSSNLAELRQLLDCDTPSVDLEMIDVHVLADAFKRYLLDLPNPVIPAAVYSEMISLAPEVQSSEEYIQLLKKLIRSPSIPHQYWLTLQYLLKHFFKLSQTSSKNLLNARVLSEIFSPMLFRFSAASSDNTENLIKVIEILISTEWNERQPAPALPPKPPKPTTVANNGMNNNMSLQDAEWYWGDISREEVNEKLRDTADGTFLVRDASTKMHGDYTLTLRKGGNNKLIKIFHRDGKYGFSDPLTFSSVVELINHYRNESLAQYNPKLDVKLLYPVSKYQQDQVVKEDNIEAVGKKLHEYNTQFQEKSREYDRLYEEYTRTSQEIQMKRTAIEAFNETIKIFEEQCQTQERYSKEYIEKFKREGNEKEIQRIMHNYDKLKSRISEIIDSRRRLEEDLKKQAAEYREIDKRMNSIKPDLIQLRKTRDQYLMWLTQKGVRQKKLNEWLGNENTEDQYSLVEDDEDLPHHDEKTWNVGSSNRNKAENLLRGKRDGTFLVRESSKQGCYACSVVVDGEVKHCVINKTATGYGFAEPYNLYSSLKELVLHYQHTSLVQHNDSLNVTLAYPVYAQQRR
Sequence of Human mTOR (FLAG-TOR) (P42345 1360-2549 limits assumed): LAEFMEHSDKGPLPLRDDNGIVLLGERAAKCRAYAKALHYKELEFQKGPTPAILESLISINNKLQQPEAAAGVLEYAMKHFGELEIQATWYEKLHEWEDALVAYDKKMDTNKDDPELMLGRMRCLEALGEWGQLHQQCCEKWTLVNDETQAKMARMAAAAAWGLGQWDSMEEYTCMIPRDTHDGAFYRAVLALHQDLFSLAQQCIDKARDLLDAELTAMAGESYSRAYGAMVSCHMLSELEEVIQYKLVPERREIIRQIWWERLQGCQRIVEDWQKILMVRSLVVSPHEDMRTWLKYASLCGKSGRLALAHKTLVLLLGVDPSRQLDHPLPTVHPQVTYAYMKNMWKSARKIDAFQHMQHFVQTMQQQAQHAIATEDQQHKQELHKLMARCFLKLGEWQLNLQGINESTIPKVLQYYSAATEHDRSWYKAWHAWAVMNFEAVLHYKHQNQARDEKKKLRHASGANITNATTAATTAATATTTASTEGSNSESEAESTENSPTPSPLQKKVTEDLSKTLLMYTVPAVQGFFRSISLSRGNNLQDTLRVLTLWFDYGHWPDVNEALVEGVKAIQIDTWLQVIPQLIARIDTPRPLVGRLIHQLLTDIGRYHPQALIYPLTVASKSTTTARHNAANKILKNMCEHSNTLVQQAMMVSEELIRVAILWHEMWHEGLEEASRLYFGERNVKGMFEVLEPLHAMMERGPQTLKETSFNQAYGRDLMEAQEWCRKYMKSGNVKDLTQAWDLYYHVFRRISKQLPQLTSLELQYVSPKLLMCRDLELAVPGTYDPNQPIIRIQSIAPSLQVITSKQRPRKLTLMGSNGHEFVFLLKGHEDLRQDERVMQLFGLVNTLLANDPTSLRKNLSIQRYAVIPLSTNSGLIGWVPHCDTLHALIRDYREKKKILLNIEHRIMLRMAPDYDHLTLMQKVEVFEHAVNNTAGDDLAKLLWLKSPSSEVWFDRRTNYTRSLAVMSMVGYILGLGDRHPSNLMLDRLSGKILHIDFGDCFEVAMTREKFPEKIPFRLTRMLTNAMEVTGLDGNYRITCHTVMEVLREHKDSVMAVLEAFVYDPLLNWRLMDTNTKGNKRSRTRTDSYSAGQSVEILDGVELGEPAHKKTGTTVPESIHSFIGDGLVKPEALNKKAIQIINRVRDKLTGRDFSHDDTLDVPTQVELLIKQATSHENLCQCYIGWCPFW

Row | SMILES | IC50 (Human mTOR (FLAG-TOR)) [nM] | IC50 (PI3K-γ; read-out: IC50 PI3Kγ) [nM] | IC50 (PI3K-α; read-out: IC50 PI3Kα) [nM] | IC50 ([1]; 72 h) [nM] | IC50 [2] [nM] | IC50 ([1]; MDA-MB-361, 72 h) [nM] | IC50 (PI3K-γ) [nM] | IC50 (PI3K-α) [nM]
1 | O=C(Nc1ccc(C(=O)O)cc1)Nc1ccc(-c2nc(N3CCCCC3)nc(N3CCOCC3)n2)cc1 [Example 593, 4-({[4-(4-morpholin-4-yl-6-piperidin-1-yl-1,3,5-triazin-2-yl)phenyl]carbamoyl}amino)benzoic acid] | 12 | 143 | 40 | – | > 1000 | > 1000 | – | –
2 | CCN1CCN(C(=O)c2ccc(NC(=O)Nc3ccc(-c4nc(N5CCCCC5)nc(N5CCOCC5)n4)cc3)cc2)CC1 [Example 596, 1-{4-[(4-ethylpiperazin-1-yl)carbonyl]phenyl}-3-[4-(4-morpholin-4-yl-6-piperidin-1-yl-1,3,5-triazin-2-yl)phenyl]urea] | 13 | 40.5 | 5 | – | 155 | 26 | – | –
3 | CN1CCN(C(=O)c2ccc(NC(=O)Nc3ccc(-c4nc(N5CCCCC5)nc(N5CCOCC5)n4)cc3)cc2)CC1 [Example 597, 1-{4-[(4-methylpiperazin-1-yl)carbonyl]phenyl}-3-[4-(4-morpholin-4-yl-6-piperidin-1-yl-1,3,5-triazin-2-yl)phenyl]urea] | 11 | 58 | 5 | – | 229 | 45 | – | –
4 | CN(C)C1CCN(C(=O)c2ccc(NC(=O)Nc3ccc(-c4nc(N5CCCC5)nc(N5CCOCC5)n4)cc3)cc2)CC1 [Example 602, 1-(4-{[4-(dimethylamino)piperidin-1-yl]carbonyl}phenyl)-3-[4-(4-morpholin-4-yl-6-pyrrolidin-1-yl-1,3,5-triazin-2-yl)phenyl]urea] | 11 | 46.5 | 7 | – | 122 | 17 | – | –
5 | CC(C)N1CCN(C(=O)c2ccc(NC(=O)Nc3ccc(-c4nc(N5CCCC5)nc(N5CCOCC5)n4)cc3)cc2)CC1 [Example 603, 1-(4-{[4-(1-methylethyl)piperazin-1-yl]carbonyl}phenyl)-3-[4-(4-morpholin-4-yl-6-pyrrolidin-1-yl-1,3,5-triazin-2-yl)phenyl]urea] | 17 | 50.5 | 8.5 | – | 137 | 17 | – | –
6 | CN(C)CCN(C)C(=O)c1ccc(NC(=O)Nc2ccc(-c3nc(N4CCCC4)nc(N4CCOCC4)n3)cc2)cc1 [Example 604, N-[2-(dimethylamino)ethyl]-N-methyl-4-({[4-(4-morpholin-4-yl-6-pyrrolidin-1-yl-1,3,5-triazin-2-yl)phenyl]carbamoyl}amino)benzamide] | 10 | 55.5 | 3.5 | 4 | 73 | – | – | –
7 | CCN1CCN(C(=O)c2ccc(NC(=O)Nc3ccc(-c4nc(N5CCCC5)nc(N5CCOCC5)n4)cc3)cc2)CC1 [Example 606, 1-{4-[(4-ethylpiperazin-1-yl)carbonyl]phenyl}-3-[4-(4-morpholin-4-yl-6-pyrrolidin-1-yl-1,3,5-triazin-2-yl)phenyl]urea] | 26 | 87 | 12 | – | 173 | 28 | – | –
8 | CN1CCN(C(=O)c2ccc(NC(=O)Nc3ccc(-c4nc(N5CCCC5)nc(N5CCOCC5)n4)cc3)cc2)CC1 [Example 607, 1-{4-[(4-methylpiperazin-1-yl)carbonyl]phenyl}-3-[4-(4-morpholin-4-yl-6-pyrrolidin-1-yl-1,3,5-triazin-2-yl)phenyl]urea] | 19 | 94 | 12 | – | 213 | 24 | – | –
9 | COCCNC(=O)c1ccc(NC(=O)Nc2ccc(-c3nc(N4CCCCC4)nc(N4CCOCC4)n3)cc2)cc1 [Example 611, N-(2-methoxyethyl)-4-({[4-(4-morpholin-4-yl-6-piperidin-1-yl-1,3,5-triazin-2-yl)phenyl]carbamoyl}amino)benzamide] | 13 | 152 | 18.5 | 194 | 581 | – | – | –
10 | O=C(Nc1ccc(C(=O)N2CCCC2)cc1)Nc1ccc(-c2nc(N3CCCC3)nc(N3CCOCC3)n2)cc1 [Example 612, 1-[4-(4-morpholin-4-yl-6-pyrrolidin-1-yl-1,3,5-triazin-2-yl)phenyl]-3-[4-(pyrrolidin-1-ylcarbonyl)phenyl]urea] | 61 | 67 | 5.5 | – | 227 | 38 | – | –

Results, then the molecule that gave them:

Row | IC50 (Human mTOR (FLAG-TOR)) [nM] | IC50 (PI3K-γ; read-out: IC50 PI3Kγ) [nM] | IC50 (PI3K-α; read-out: IC50 PI3Kα) [nM] | IC50 ([1]; 72 h) [nM] | IC50 [2] [nM] | IC50 ([1]; MDA-MB-361, 72 h) [nM] | IC50 (PI3K-γ) [nM] | IC50 (PI3K-α) [nM] | SMILES
11 | 9 | 122 | 25.5 | 239 | 718 | – | – | – | O=C(Nc1ccncc1)Nc1ccc(-c2nc(N3CCCCC3)nc(N3CCOCC3)n2)cc1 [Example 592, 1-[4-(4-morpholin-4-yl-6-piperidin-1-yl-1,3,5-triazin-2-yl)phenyl]-3-pyridin-4-ylurea]
12 | 10 | 40 | 5.5 | – | 214 | 22 | – | – | CN(C)C1CCN(C(=O)c2ccc(NC(=O)Nc3ccc(-c4nc(N5CCCCC5)nc(N5CCOCC5)n4)cc3)cc2)CC1 [Example 598, 1-(4-{[4-(dimethylamino)piperidin-1-yl]carbonyl}phenyl)-3-[4-(4-morpholin-4-yl-6-piperidin-1-yl-1,3,5-triazin-2-yl)phenyl]urea]
13 | 3 | 46 | 2.2 | 7 | 92 | – | – | – | CN(C)CCN(C)C(=O)c1ccc(NC(=O)Nc2ccc(-c3nc(N4CCCCC4)nc(N4CCOCC4)n3)cc2)cc1 [Example 605, N-[2-(dimethylamino)ethyl]-N-methyl-4-({[4-(4-morpholin-4-yl-6-piperidin-1-yl-1,3,5-triazin-2-yl)phenyl]carbamoyl}amino)benzamide]
14 | 5 | 107 | 9 | 52 | 298 | – | – | – | CN(C)CCNC(=O)c1ccc(NC(=O)Nc2ccc(-c3nc(N4CCCC4)nc(N4CCOCC4)n3)cc2)cc1 [Example 608, N-[2-(dimethylamino)ethyl]-4-({[4-(4-morpholin-4-yl-6-pyrrolidin-1-yl-1,3,5-triazin-2-yl)phenyl]carbamoyl}amino)benzamide]
15 | 3 | – | – | – | 26 | 24 | 93.5 | 11.5 | C[C@H]1COCCN1c1nc(-c2ccc(NC(=O)Nc3ccncc3)cc2)nc(N2CCOC[C@@H]2C)n1 [Example 609, 1-(4-{4,6-bis[(3S)-3-methylmorpholin-4-yl]-1,3,5-triazin-2-yl}phenyl)-3-pyridin-4-ylurea]
16 | 5 | 50.5 | 3.5 | 28 | 297 | – | – | – | CN(C)CCCNC(=O)c1ccc(NC(=O)Nc2ccc(-c3nc(N4CCCCC4)nc(N4CCOCC4)n3)cc2)cc1 [Example 610, N-[3-(dimethylamino)propyl]-4-({[4-(4-morpholin-4-yl-6-piperidin-1-yl-1,3,5-triazin-2-yl)phenyl]carbamoyl}amino)benzamide]
17 | 1 | 53.5 | 3.8 | 6 | 21 | – | – | – | CCN1CCN(C(=O)c2ccc(NC(=O)Nc3ccc(-c4nc(N5CCOC[C@@H]5C)nc(N5CCOC[C@@H]5C)n4)cc3)cc2)CC1 [Example 613, 1-(4-{4,6-bis[(3S)-3-methylmorpholin-4-yl]-1,3,5-triazin-2-yl}phenyl)-3-{4-[(4-ethylpiperazin-1-yl)carbonyl]phenyl}urea]
18 | 1 | 32.5 | 2.7 | 4 | 15 | – | – | – | CC(C)N1CCN(C(=O)c2ccc(NC(=O)Nc3ccc(-c4nc(N5CCOC[C@@H]5C)nc(N5CCOC[C@@H]5C)n4)cc3)cc2)CC1 [Example 614, 1-(4-{4,6-bis[(3S)-3-methylmorpholin-4-yl]-1,3,5-triazin-2-yl}phenyl)-3-(4-{[4-(1-methylethyl)piperazin-1-yl]carbonyl}phenyl)urea]
19 | 1 | 116 | 26.5 | 88 | 123 | – | – | – | COC(=O)c1ccc(NC(=O)Nc2ccc(-c3nc(N4CCOCC4)nc(N4CCOC[C@@H]4C)n3)cc2)cc1 [Example 615, methyl 4-{[(4-{4-[(3S)-3-methylmorpholin-4-yl]-6-morpholin-4-yl-1,3,5-triazin-2-yl}phenyl)carbamoyl]amino}benzoate]
20 | 1 | 58.5 | 4 | – | 21 | 4 | – | – | C[C@H]1COCCN1c1nc(-c2ccc(NC(=O)Nc3ccc(C(=O)N4CCC(N(C)C)CC4)cc3)cc2)nc(N2CCOC[C@@H]2C)n1 [Example 616, 1-(4-{4,6-bis[(3S)-3-methylmorpholin-4-yl]-1,3,5-triazin-2-yl}phenyl)-3-(4-{[4-(dimethylamino)piperidin-1-yl]carbonyl}phenyl)urea]
21 | 1 | 27 | 2.5 | – | 17 | 4 | – | – | C[C@H]1COCCN1c1nc(-c2ccc(NC(=O)Nc3ccc(C(=O)N4CCN(C)CC4)cc3)cc2)nc(N2CCOCC2)n1 [Example 617, 1-(4-{4-[(3S)-3-methylmorpholin-4-yl]-6-morpholin-4-yl-1,3,5-triazin-2-yl}phenyl)-3-{4-[(4-methylpiperazin-1-yl)carbonyl]phenyl}urea]
